{"source": "patent US20080200477A1", "about": "“Retinoid-Containing Compositions Having Reduced Irritation Effect” (priority 2004, published 2008)", "key": {"[1]": {"system": "retinol induced skin redness", "assay": "Repeated patch test on backs of human volunteers, cumulated redness score", "assay_type": "in vivo", "conditions": "for inhibition of retinol-induced redness (in words): concentration not given, retinol 0.1 wt. %, human volunteers; for Score (cumulated redness score): 48 hours patches, three times a week during three weeks", "description": "Based on the foregoing results, Dragocalm®, ectoine, and dipotassium glycyrrhenzinate were tested further on human volunteers for their potential to reduce retinol induced skin redness. Patches containing formulas comprising either retinol (0.1 wt. %) or retinol (0.1 wt. %) plus the test ingredient Dragocalm®, ectoine, or dipotassium glycyrrhenzinate were applied during 48 hours to the backs of volunteers three times a week during three weeks. Redness induced by the patches was examined and scored after each patch removal. Every individual score for each product were cumulated to give the final scores."}, "interleukin-8 (IL8)": {"system": "interleukin-8 (IL8)", "assay": "Retinol-induced interleukin-8 release from reconstituted epidermis (ELISA on culture medium)", "assay_type": "cell-based, human", "conditions": "for % reduction of IL8 release Control + retinol: measured after 48 hours and 96 hours (time not given)", "description": "Samples of reconstituted epidermis were topically applied with gel/emulsions containing retinol (0.075 wt. %) and a series of test ingredients. The release of interleukin-8 (IL8) was measured in the culture medium after 48 hours by an ELISA method. No significant loss of viability was evidenced. No release of interleukin-1 (IL1) was observed.\nSamples of reconstituted epidermis were topically applied with gel/emulsions containing retinol (0.075 wt. %) and one of the following test ingredients: Dragocalm® (at 1.5 wt. % and 3.5 wt. %), dipotassium glycyrrhenzinate (at 0.5 wt. %), Rona Care® ectoine (at 0.1 wt. %, 0.25 wt. %), and a willow herb (0.1 wt. %)/oat straw (0.1 wt. %) extract combination. The release of IL8 was measured in each culture medium after 48 hours and 96 hours by an ELISA method. No significant loss of viability was evidenced. No release of IL1 was observed."}, "[2]": {"conditions": "retinol 0.1 wt. % + test ingredient 0.25 wt. %"}, "[3]": {"conditions": "retinol 0.1 wt. % + test ingredient 0.5 wt. %"}}, "data": [{"molecule": "CC1=NC(C(=O)O)CCN1", "note": "(centres unmarked) [Rona Care ® Ectoin, 1,4,5,6-tetrahydro-2-methyl-4-pyrimidine carboxylic acid]", "values": [{"measurement": "inhibition of retinol-induced redness (in words)", "setting": "[1]", "result": "reduced redness but to a lesser extent"}, {"measurement": "% reduction (of redness score vs Control + Retinol 0.1 wt. %)", "setting": "[1]; [2]", "result": "−56", "unit": "%"}, {"measurement": "Score (cumulated redness score)", "setting": "[1]; [2]", "result": 9.5}, {"measurement": "decrease of retinol induced IL8 release", "setting": "interleukin-8 (IL8); Example 1, 1 wt. %, retinol 0.075 wt. %, 48 hours", "result": 55, "unit": "%"}, {"measurement": "% Reduction of Interleukin-8 compared with Control + Retinol", "setting": "interleukin-8 (IL8); Example 1, test ingredient 1 wt. % in gel/emulsion with retinol 0.075 wt. %, 48 hours", "result": "−55", "unit": "%"}, {"measurement": "activity on IL8 release (in words)", "setting": "interleukin-8 (IL8); Example 2, 0.1 wt. %, retinol 0.075 wt. %", "result": "no activity"}, {"measurement": "reduction (inhibition) of IL8 release", "setting": "interleukin-8 (IL8); Example 2, 0.25 wt. %, retinol 0.075 wt. %", "result": 60, "unit": "%"}, {"measurement": "% reduction of IL8 release Control + retinol", "setting": "interleukin-8 (IL8); Example 2, test ingredient 0.1 wt. %, retinol 0.075 wt. %", "result": "−31", "unit": "%"}, {"measurement": "% reduction of IL8 release Control + retinol", "setting": "interleukin-8 (IL8); Example 2, test ingredient 0.25 wt. %, retinol 0.075 wt. %", "result": "−60", "unit": "%"}]}, {"molecule": "Dipotassium Glycirrhezinate [reference compound]", "values": [{"measurement": "inhibition of retinol-induced redness (in words)", "setting": "[1]", "result": "not effective"}, {"measurement": "% reduction (of redness score vs Control + Retinol 0.1 wt. %)", "setting": "[1]; [3]", "result": "−21", "unit": "%"}, {"measurement": "Score (cumulated redness score)", "setting": "[1]; [3]", "result": 17}, {"measurement": "% Reduction of Interleukin-8 compared with Control + Retinol", "setting": "interleukin-8 (IL8); Example 1, test ingredient 0.2 wt. % in gel/emulsion with retinol 0.075 wt. %, 48 hours", "result": "−29", "unit": "%"}, {"measurement": "reduction (inhibition) of IL8 release", "setting": "interleukin-8 (IL8); Example 2, 0.5 wt. %, retinol 0.075 wt. %", "result": 63, "unit": "%"}, {"measurement": "% reduction of IL8 release Control + retinol", "setting": "interleukin-8 (IL8); Example 2, test ingredient 0.5 wt. %, retinol 0.075 wt. %", "result": "−63", "unit": "%"}]}, {"molecule": "CCCCCCCCCCCCCCCCCCOC(=O)[C@@]1(C)CC[C@]2(C)CC[C@]3(C)C(=CC(=O)[C@@H]4[C@@]5(C)CC[C@H](O)C(C)(C)[C@@H]5CC[C@]43C)[C@@H]2C1", "note": "[Stearyl Glycirrhezinate, reference compound]", "values": [{"measurement": "% Reduction of Interleukin-8 compared with Control + Retinol", "setting": "interleukin-8 (IL8); Example 1, test ingredient 0.1 wt. % in gel/emulsion with retinol 0.075 wt. %, 48 hours", "result": 26, "unit": "%"}]}, {"molecule": "CC(C)=CCC[C@](C)(O)[C@@H]1CC=C(C)CC1", "note": "[Alpha Bisabolol, reference compound]", "values": [{"measurement": "% Reduction of Interleukin-8 compared with Control + Retinol", "setting": "interleukin-8 (IL8); Example 1, test ingredient 0.05 wt. % in gel/emulsion with retinol 0.075 wt. %, 48 hours", "result": "−4", "unit": "%"}]}]}
